Assay results as given in US5959130A, “Castor based benzoate esters” (Finetex, Inc., priority 1997, dated 1999).

Tests used:
[1] = physical properties of benzoate esters compared to precursors, Table II; format: physicochemical; conditions: for S.G. (specific gravity): 25° C.; for VISCOSITY: Brookfield Viscometer, Spindle # 1, 10 rpm
From the text: Absence of odor is an important factor in consumer acceptance of cosmetic and toiletry products.

[2] = refractive index of benzoate esters compared to precursors, Table V; format: physicochemical; conditions: 25° C.
[3] = sunscreen solubility: Benzophenone-3, Table IV A; format: physicochemical
From the text: (§1) These two sunscreens are difficult to dissolve and keep in solution for use in sunscreen formulations for optimal SPF (sun-protection factors). Higher solvency for a sunscreen ingredient is desirable as it allows higher concentrations of the sunscreen active ingredient in a formulation. This advantageously raises the SPF ratings for the formulation. The liquid organic sunscreens that are commonly used are octyl-methoxy cinnamate (OMC) and octyl salicylate (OS).
(§2) Solubility/Solvency Tables IVA and IVB show the solubility and concentrations of the sunscreen ingredient in the novel esters of the invention compared to their precursor raw materials (non-benzoate esters).

[4] = sunscreen solubility: PARSOL 1789, Table IV B; format: physicochemical
From the text: as §1, §2

[5] = Hagman readings (particle size), titanium dioxide dispersion, Table VI A; format: physicochemical; conditions: TiO2 50%
Description: (§3) The novel benzoate esters of the invention were tested for pigment and dye dispersing efficacy. Color pastes were prepared by dispersing dry pigment into the oil phase while hand stirring and then passing each mixture through a three roll mill six times, collecting a 16 oz. sample after each pass. The samples collected were subjected to particle size measurements.

[6] = Hagman readings (particle size), Red No. 6 Barium Lake dispersion, Table VI A; format: physicochemical; conditions: Red No. 6 Barium Lake 35%
Description: as §3

[7] = Hagman readings (particle size), Red No. 21 dispersion, Table VI A; format: physicochemical; conditions: Red No. 21 35%
Description: as §3

[8] = viscosity readings of titanium dioxide dispersions, Table VI B; format: physicochemical; conditions: for Viscosity reading of dispersion: Brookfield LVT-D @ 12 RPM, TiO2 50%
[9] = viscosity readings of Red No. 21 dispersions, Table VI B; format: physicochemical; conditions: Brookfield LVT-D @ 12 RPM, Red No. 21 35%
[10] = organoleptic evaluation of tactile characteristics on the forearm, Table VII; format: in vivo, individuals; conditions: rating, 1 = Worst 5 = Best
Description: The tactile characteristics of the novel benzoate esters of the invention were determined by applying the appropriate material, neat or as a dilution with another emollient ester, lanolin or […]. The properties were evaluated organoleptically after application to the interior surface of the forearm.

[11] = in specific ratios
From the text: The aforedescribed benzoate esters have unique properties that make them particularly suited for use as emollient carriers for cosmetic ingredients. […] Parsol® is a registered trademark of Givaudan Corp. of Clifon, N.J.

[12] = 23° C., 10 gms sunscreen in 100 gms mixture
[13] = 30° C., 10 gms sunscreen in 100 gms mixture
[14] = 30° C., 15 gms sunscreen in 100 gms mixture

CCCCCCCCCCCCCCCCOC(=O)CCCCCCC/C=C\C[C@H](O)CCCCCC [CR, Cetyl Ricinoleate, reference compound]
Color [1]: light yellow
S.G. (specific gravity) [1]: 0.874
VISCOSITY [1]: 65 cps
REFRACTIVE INDEX ([1]; Table II): 1.4580
Refractive Index, Typical [2]: 1.4580
Sunscreen solubility (Benzophenone-3) [3, 12]: +
Sunscreen solubility (Benzophenone-3) [3, 13]: +
Sunscreen solubility (Benzophenone-3) [3, 14]: +
Sunscreen solubility (Parsol 1789) [4, 12]: +
Sunscreen solubility (Parsol 1789) [4, 13]: +
Sunscreen solubility (Parsol 1789) [4, 14]: +
Hagman reading (particle size) ([5]; pass 1): ≤ 93 μm
Hagman reading (particle size) ([5]; pass 2): ≤ 80 μm
Hagman reading (particle size) ([5]; pass 3): ≤ 80 μm
Hagman reading (particle size) ([5]; pass 4): ≤ 76 μm
Hagman reading (particle size) ([5]; pass 5): ≤ 50 μm
Hagman reading (particle size) ([5]; pass 6): ≤ 43 μm
Hagman reading (particle size) ([6]; pass 1): ≤ 49 μm
Hagman reading (particle size) ([6]; pass 2): ≤ 48 μm
Hagman reading (particle size) ([6]; pass 3): ≤ 40 μm
Hagman reading (particle size) ([6]; pass 4): ≤ 38 μm
Hagman reading (particle size) ([6]; pass 5): ≤ 33 μm
Hagman reading (particle size) ([6]; pass 6): ≤ 30 μm
Hagman reading (particle size) ([7]; pass 1): ≤ 39 μm
Hagman reading (particle size) ([7]; pass 2): ≤ 36 μm
Hagman reading (particle size) ([7]; pass 3): ≤ 30 μm
Hagman reading (particle size) ([7]; pass 4): ≤ 26 μm
Hagman reading (particle size) ([7]; pass 5): ≤ 18 μm
Hagman reading (particle size) ([7]; pass 6): ≤ 14 μm
Viscosity reading of dispersion ([8]; pass 1): Out of instrument range
Viscosity reading of dispersion ([8]; pass 2): Out of instrument range
Viscosity reading of dispersion ([8]; pass 3): Out of instrument range
Viscosity reading of dispersion ([8]; pass 4): Out of instrument range
Viscosity reading of dispersion ([8]; pass 5): Out of instrument range
Viscosity reading of dispersion ([8]; pass 6): Out of instrument range
Viscosity reading of dispersion ([9]; pass 1): Out of instrument range
Viscosity reading of dispersion ([9]; pass 2): Out of instrument range
Viscosity reading of dispersion ([9]; pass 3): Out of instrument range
Viscosity reading of dispersion ([9]; pass 4): Out of instrument range
Viscosity reading of dispersion ([9]; pass 5): Out of instrument range
Viscosity reading of dispersion ([9]; pass 6): Out of instrument range

CCCCCCC(CC=CCCCCCCCC(=O)OCC(COC(=O)CCCCCCCC=CCC(CCCCCC)OC(=O)c1ccccc1)OC(=O)CCCCCCCC=CCC(CCCCCC)OC(=O)c1ccccc1)OC(=O)c1ccccc1 (stereo not shown) [BCO, Benzoic acid ester of glyceryl tri-ricinoleate]
S.G. (specific gravity) [1]: 0.982
VISCOSITY [1]: 937 cps
Sunscreen solubility (Benzophenone-3) [3, 12]: +
Sunscreen solubility (Benzophenone-3) ([3]; 23° C., 15 gms sunscreen in 100 gms mixture): +
Sunscreen solubility (Benzophenone-3) [3, 13]: +
Sunscreen solubility (Benzophenone-3) [3, 14]: +
Sunscreen solubility (Parsol 1789) [4, 12]: +
Sunscreen solubility (Parsol 1789) ([4]; 30° C., 5 gms sunscreen in 100 gms mixture): +
Sunscreen solubility (Parsol 1789) [4, 13]: +
Sunscreen solubility (Parsol 1789) [4, 14]: +
Hagman reading (particle size) ([5]; pass 1): ≤ 30 μm
Hagman reading (particle size) ([5]; pass 2): ≤ 26 μm
Hagman reading (particle size) ([5]; pass 3): ≤ 20 μm
Hagman reading (particle size) ([5]; pass 4): ≤ 10 μm
Hagman reading (particle size) ([5]; pass 5): ≤ 10 μm
Hagman reading (particle size) ([5]; pass 6): ≤ 8 μm
Hagman reading (particle size) ([6]; pass 1): ≤ 49 μm
Hagman reading (particle size) ([6]; pass 2): ≤ 45 μm
Hagman reading (particle size) ([6]; pass 3): ≤ 42 μm
Hagman reading (particle size) ([6]; pass 4): ≤ 40 μm
Hagman reading (particle size) ([6]; pass 5): ≤ 36 μm
Hagman reading (particle size) ([6]; pass 6): ≤ 33 μm
Hagman reading (particle size) ([7]; pass 1): ≤ 39 μm
Hagman reading (particle size) ([7]; pass 2): ≤ 30 μm
Hagman reading (particle size) ([7]; pass 3): ≤ 26 μm
Hagman reading (particle size) ([7]; pass 4): ≤ 14 μm
Hagman reading (particle size) ([7]; pass 5): ≤ 12 μm
Hagman reading (particle size) ([7]; pass 6): ≤ 10 μm
viscosity of TiO2 dispersions (in words) [8]: much lower viscosity
Viscosity reading of dispersion ([8]; pass 1): 6552 cps
Viscosity reading of dispersion ([8]; pass 2): 7176 cps
Viscosity reading of dispersion ([8]; pass 3): 7800 cps
Viscosity reading of dispersion ([8]; pass 4): 7332 cps
Viscosity reading of dispersion ([8]; pass 5): 7176 cps
Viscosity reading of dispersion ([8]; pass 6): 6786 cps
Viscosity reading of dispersion ([9]; pass 1): > 15,600 cps
Viscosity reading of dispersion ([9]; pass 2): > 15,600 cps
Viscosity reading of dispersion ([9]; pass 3): > 15,600 cps
Viscosity reading of dispersion ([9]; pass 4): > 15,600 cps
Viscosity reading of dispersion ([9]; pass 5): > 15,600 cps
Viscosity reading of dispersion ([9]; pass 6): > 15,600 cps
GREASINESS/OILINESS [10]: 4
OVERALL TACTILITY [10]: 3
SPREADABILITY [10]: 4
TACK [10]: 2
miscibility with Parsol 1789 [11]: miscible
miscibility with benzophenone-3 [11]: miscible
